Results published in US20170369475A1, “Flibanserin Hydrate” (Sandoz AG, priority 2016, published 2017).
“Also recorded” adds a separate entry of the source.

Assay: Gravimetric moisture sorption (GMS)
Format: physicochemical
Conditions: 25±0.1° C.
Method: Moisture sorption isotherms were recorded with an SPSx-1 μ moisture sorption analyzer (ProUmid, Ulm). The measurement cycle was started at ambient relative humidity (RH) of 30%. RH was then decreased to 5% in 5% steps, followed by a further decrease to 3% and to 0%. […] Finally, RH was increased to ambient relative humidity of 30% in 5% steps.
The time per step was set to a minimum of 2 hours and a maximum of 6 hours. If an equilibrium condition with a constant mass of ±0.01% within 1 hour was reached before the maximum time for all examined samples the sequential humidity step was applied before the maximum time of 6 hours. If no equilibrium was achieved the consecutive humidity step was applied after the maximum time of 6 hours. The temperature was 25±0.1° C.
Therefore, flibanserin hydrate of the present invention can be assigned as being non-hygroscopic.

hysteresis between sorption and desorption isotherms (GMS, 0 to 95% RH): no significant hysteresis
physical form after the GMS experiment (PXRD) (after sorption/desorption cycle 0-95-0% RH): same PXRD
mass difference between 0 and 95% RH (equilibrium mass change, GMS) (sorption/desorption cycle 0-95% RH): 0.2 weight %
SMILES: O=c1[nH]c2ccccc2n1CCN1CCN(c2cccc(C(F)(F)F)c2)CC1 [flibanserin hydrate]
hygroscopicity / water uptake or loss (in words) (GMS, 0 to 95% RH, hydrate): neither significant water uptake nor loss; also recorded: non-hygroscopic
